Test results taken from patent US20120142730A1 (priority 2010, published 2012).

Tested on: subjects with relapsing remitting multiple sclerosis (RRMS)
Test: ALLEGRO (MS-LAQ-301) phase III trial: confirmed relapse endpoints
Type: in vivo, human
Set-up: key to Annualized relapse rate, adjusted mean (SE): ARR = number of relapses divided by total patient exposure
Settings: for Annualized relapse rate, adjusted mean (SE): 24-month treatment period
From the text: The primary endpoint of the study was the number of confirmed relapses during the double-blind treatment period, which corresponds to the annualized relapse rate (ARR—number of relapses divided by total exposure of all patients). Secondary endpoints included disability as measured by Expanded Disability Status Scale (EDSS) changes confirmed at 3 months, and cumulative number of gadolinium enhancing (GdE) and new/enlarging T2 MRI lesions. Eligible subjects were equally randomized 1:1 into one of the following treatment arms: • 1. […] 21, 2007 (see, page 10, line 5 to page 11, line 3). • 2. Matching placebo for laquinimod arm: one capsule is administered once daily. The primary endpoint was the number of confirmed relapses during the double-blind study period. A relapse was defined as the appearance of one or more new neurological abnormalities or the reappearance of one or more previously observed neurological abnormalities lasting for at least 48 hours and after an improved neurological state for at least 30 days. An event was counted as a relapse if the subject's symptoms were accompanied by observed objective neurological changes consistent with at least one of the following: an increase of at least 0.5 in the EDSS score; an increase of one grade in two or more of the seven functional systems; or an increase of two grades in one functional system. Standardized treatment of relapses was intravenous methylprednisolone 1 g/day for up to five consecutive days based on the treating neurologist's decision. The analysis of the total number of confirmed relapses during the study period is based on baseline adjusted Quasi-Likelihood (over-dispersed) Poisson Regression. Using the Poisson regression with the treatment group as a covariate, the ARR of each group was calculated for the intent-to-treat (ITT) cohort as the total number of confirmed relapses for all patients in each group divided by the total patient years in that group. In addition to the treatment group, the following covariates were included: baseline EDSS score, log of the (prior 2-year number of relapses +1) and country or geographical region.

[1] = 0.6 mg daily oral vs placebo, 24 months
[2] = post-hoc, vs placebo, listed as laquinimod

CCN(C(=O)c1c(O)c2c(Cl)cccc2n(C)c1=O)c1ccccc1 [Laquinimod, laquinimod]
Annualized rate of relapses requiring hospitalization and/or IV steroids, reduction (0.6 mg daily oral vs placebo): 27% reduction | Increase in the time to first relapse (0.6 mg daily oral vs placebo): 28.2% | Time to 1st confirmed relapse: reduction for the risk of 1st confirmed relapse (0.6 mg daily oral vs placebo): 28% reduction for the | Annualized relapse rate, reduction [1]: 23% reduction | Increase in odds to be relapse free [1]: 55% increase odds to | Increase in odds to be relapse free (0.6 mg daily oral vs placebo, 24 months, listed as laquinimod): 55% | Annualized relapse rate, adjusted mean (SE) (0.6 mg daily oral): 0.304 | Annualized relapse rate, adjusted mean (SE) (0.6 mg daily oral, listed as laquinimod): 0.304±0.022 | Annualized rate of relapses requiring hospitalization and/or IV steroids, adjusted mean (0.6 mg daily oral, 24 months): 0.242 | Relapse-free during study, adjusted proportion (0.6 mg daily oral, 24 months): 62.90% | Relapse-free during study, adjusted proportion (0.6 mg daily oral, 24 months, listed as laquinimod): 62.9% | ARR 1st year (post-hoc, 0.6 mg daily oral): 0.343 | ARR for dropouts (post-hoc, 0.6 mg daily oral): 0.640 | Annualized rate of relapses requiring IV steroids (post-hoc, 0.6 mg daily oral): 0.263 | Annualized rate of relapses requiring hospitalization (post-hoc, 0.6 mg daily oral): 0.071 | Relapses with full recovery (EDSS before and after attack) (post-hoc, 0.6 mg daily oral): 0.155 | Relapses with no recovery (EDSS before and after attack) (post-hoc, 0.6 mg daily oral): 0.06 | Unconfirmed relapses (post-hoc, 0.6 mg daily oral): 0.094 | ARR by median relapse duration (post-hoc, relapse duration >34 days (n~100)): 0.964 | ARR by median relapse duration, reduction (post-hoc, relapse duration >34 days (n~100), vs placebo): 1.3% reduction | ARR by median relapse duration (post-hoc, relapse duration ≦34 days): 0.153 | ARR by median relapse duration, reduction (post-hoc, relapse duration ≦34 days, vs placebo): 37% reduction | ARR 1st year, reduction (post-hoc, vs placebo): 24% reduction | ARR for dropouts, reduction (post-hoc, vs placebo): 26% reduction | Relapses requiring IV steroids, reduction (post-hoc, vs placebo): 27% reduction | Relapses requiring hospitalization, reduction (post-hoc, vs placebo): 38% reduction | Relapses with full recovery, reduction (post-hoc, vs placebo): 13% reduction | Relapses with no recovery, reduction (post-hoc, vs placebo): 24% reduction | Unconfirmed relapses, reduction (post-hoc, vs placebo): 17% reduction | Relapses requiring IV steroids, reduction [2]: 27% | Relapses requiring hospitalization, reduction [2]: 38%
